In the test the target is MAPK14 (human) (UniProt Q16539). Kind of test: Inhibition of LPS Stimulated TNF Production by U937 Cells. The following applies: for inhibition: concentration not given here.
Chain of MAPK14 (human) (Q16539 whole entry, looked up): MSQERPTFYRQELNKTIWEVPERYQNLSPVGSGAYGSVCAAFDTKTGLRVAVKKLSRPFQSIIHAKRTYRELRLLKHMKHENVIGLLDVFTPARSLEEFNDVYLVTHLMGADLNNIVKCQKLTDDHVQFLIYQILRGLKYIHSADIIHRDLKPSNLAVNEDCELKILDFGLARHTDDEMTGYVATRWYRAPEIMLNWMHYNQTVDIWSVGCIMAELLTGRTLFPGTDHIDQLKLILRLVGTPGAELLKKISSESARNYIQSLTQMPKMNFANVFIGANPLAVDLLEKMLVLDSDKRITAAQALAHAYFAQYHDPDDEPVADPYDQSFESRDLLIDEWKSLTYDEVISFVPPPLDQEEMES

One may read the inhibition as how much of the control response was suppressed. Low readings indicate a weak effect, high ones a strong effect. For the compound `Cc1ccc(C)c(S(=O)(=O)NCCCc2[nH]nc(-c3ccc(F)cc3)c2-c2ccncc2)c1`, the inhibition is 36%.
Same read-out and setting: the result for `COc1ccc(CC(=O)N[C@H](C)c2[nH]nc(-c3ccc(F)cc3)c2-c2ccncc2)cc1` reads 29%.
As a reminder, the IC50 is the midpoint of a concentration-inhibition curve. Read a high IC50 as lower potency. Compound `C=CCOC(=O)N[C@H](C)c1[nH]nc(-c2ccc(F)cc2)c1-c1ccncc1` had a half-maximal inhibitory concentration (IC50) of 0.66 µM. In other words, the sub-micromolar range.
Same read-out and setting: the value for `Cc1ccc(-c2[nH]nc(C)c2-c2ccncc2)c(C)c1` was 1.05 µM; that for `CNC(=O)CC[C@H](NC(=O)c1cccc(Br)c1)c1[nH]nc(-c2ccc(F)cc2)c1-c1ccncc1` was more than 1 µM.
`Cc1ccc(S(=O)(=O)N2CCC(c3[nH]nc(-c4ccc(F)cc4)c3-c3ccncc3)CC2)cc1` gave an inhibition of 14%.
`CCN(CC)CCn1cc(-c2ccnc(F)c2)c(-c2ccc(F)cc2)n1` displayed a 50% inhibitory concentration (IC50) of 2.3 µM.
Regarding `O=C(c1ccc(I)cc1)N1CCC(c2[nH]nc(-c3ccc(F)cc3)c2-c2ccncc2)CC1`, the IC50 turned out to be 0.27 µM.
Take `C[C@@H](NC(=O)c1cccc(Cl)c1Cl)c1[nH]nc(-c2ccc(F)cc2)c1-c1ccncc1`: the inhibition was found to be 43%.
For `C[C@H](NC(=O)N[C@H](C)c1ccccc1)c1[nH]nc(-c2ccc(F)cc2)c1-c1ccncc1`, the inhibition stood at 41%.
On the same count and under the same terms, the value for `C[C@@H](NS(=O)(=O)[C@@]12CC[C@H](CC1=O)C2(C)C)c1[nH]nc(-c2ccc(F)cc2)c1-c1ccncc1` was 54%.
Same read-out and setting: the result for `O=C(NCc1[nH]nc(-c2ccc(F)cc2)c1-c1ccncc1)c1ccc(Cl)cc1` reads 19%; that for `O=C(NCc1[nH]nc(-c2ccc(F)cc2)c1-c1ccncc1)[C@@H]1CCCN1C(=O)OCC1c2ccccc2-c2ccccc21`, 55%.
With `CCOC(=O)N[C@H](C)c1[nH]nc(-c2ccc(F)cc2)c1-c1ccncc1`, the IC50 turned out to be 0.74 µM.
Consider `O=C(NCc1[nH]nc(-c2ccc(F)cc2)c1-c1ccncc1)c1sc2ccccc2c1Cl`, for which the inhibition came to 18%.
Same read-out and setting: the result for `C[C@H](NC(=O)N[C@H](C)c1[nH]nc(-c2ccc(F)cc2)c1-c1ccncc1)c1ccccc1` reads 25%.
With `O=C(NCc1[nH]nc(-c2ccc(F)cc2)c1-c1ccncc1)c1ccccc1C(F)(F)F`, the 50% inhibitory concentration (IC50) is 3.95 µM.
The compound `COc1cc(NC(=O)NCc2[nH]nc(-c3ccc(F)cc3)c2-c2ccncc2)cc(OC)c1OC` displayed an inhibition of 29%.
Still for that read-out and setting: the result for `Cc1cccc(C(=O)N[C@@H](C)c2[nH]nc(-c3ccc(F)cc3)c2-c2ccncc2)c1` reads 29%.
Consider `COc1ccc(C)cc1S(=O)(=O)NCc1[nH]nc(-c2ccc(F)cc2)c1-c1ccncc1`, for which the IC50 is more than 1 µM.
With `C[C@H](NC(=O)c1cc(F)cc(C(F)(F)F)c1)c1[nH]nc(-c2ccc(F)cc2)c1-c1ccncc1`, the inhibition was 36%.
In turn, `O=C(N[C@H](Cc1ccccc1)c1[nH]nc(-c2ccc(F)cc2)c1-c1ccncc1)c1ccccc1C(F)(F)F` gave a concentration for half-maximal inhibition (IC50) of more than 1 µM and an inhibition of 25%.
The compound `CCN(CC)C(=O)N[C@H](C)c1[nH]nc(-c2ccc(F)cc2)c1-c1ccncc1` had an inhibition of 49%.
In the case of `Cc1noc(C)c1C(=O)N[C@@H](C)c1[nH]nc(-c2ccc(F)cc2)c1-c1ccncc1`, the inhibition worked out at 32%.
The same measure, in the same setting: the result for `C[C@H](NC(=O)c1cccc(Cl)c1)c1[nH]nc(-c2ccc(F)cc2)c1-c1ccncc1` reads 39%; that for `C[C@@H](NS(=O)(=O)c1ccc(-c2ccccn2)s1)c1[nH]nc(-c2ccc(F)cc2)c1-c1ccncc1`, 68%; that for `C[C@@H](NS(=O)(=O)c1ccccc1)c1[nH]nc(-c2ccc(F)cc2)c1-c1ccncc1`, 54%.
Still for that read-out and setting: the result for `C[C@@H](NS(=O)(=O)c1ccc(Br)cc1)c1[nH]nc(-c2ccc(F)cc2)c1-c1ccncc1` reads 89%.
In the case of `C[C@@H](NC(=O)[C@H]1CCCN1)c1[nH]nc(-c2ccc(F)cc2)c1-c1ccncc1`, the inhibition worked out at 39%.
Turning to `C[C@@H](NC(=O)[C@@H]1CCCN1)c1[nH]nc(-c2ccc(F)cc2)c1-c1ccncc1`, the inhibition is 27%.
As to `C[C@@H](NC(=O)c1c(F)cccc1F)c1[nH]nc(-c2ccc(F)cc2)c1-c1ccncc1`, the inhibition turned out to be 83%.
As for `CN(C)CCn1cc(-c2ccnc(N(C)C)c2)c(-c2ccc(F)cc2)n1`, the IC50 is more than 10 µM.
On the same count and under the same terms, the result for `O=C(NCCCc1[nH]nc(-c2ccc(F)cc2)c1-c1ccncc1)NCCCn1ccnc1` reads more than 1 µM.
The same measure, in the same setting: the value for `Fc1ccc(-c2n[nH]cc2-c2ccnc3ccccc23)cc1` was 1.13 µM.
The compound `COC(=O)CCCC(=O)NCc1[nH]nc(-c2ccc(F)cc2)c1-c1ccncc1` registered an inhibition of 20%.
Same read-out and setting: the value for `O=S(=O)(NCc1[nH]nc(-c2ccc(F)cc2)c1-c1ccncc1)c1cccc2nonc12` was 54%.
In turn, `Cc1[nH]nc(-c2ccc(F)cc2)c1-c1ccncc1` gave an IC50 of 0.222 µM.
In turn, `C[C@H](NC(=O)c1cccc(C(F)(F)F)c1)c1[nH]nc(-c2ccc(F)cc2)c1-c1ccncc1` showed an inhibition of 32%.
The same measure, in the same setting: the result for `CCN(CC)C(=O)N[C@@H](C)c1[nH]nc(-c2ccc(F)cc2)c1-c1ccncc1` reads 63%; that for `C[C@H](NC(=O)c1ccc(F)cc1F)c1[nH]nc(-c2ccc(F)cc2)c1-c1ccncc1`, 45%; that for `CCCCCCCC(=O)NCc1[nH]nc(-c2ccc(F)cc2)c1-c1ccncc1`, 4%.
Compound `O=S(=O)(Cc1ccccc1)NCc1[nH]nc(-c2ccc(F)cc2)c1-c1ccncc1` had an IC50 of 0.21 µM.
Regarding `C[C@@H](NS(=O)(=O)c1ccc(Cl)cc1)c1[nH]nc(-c2ccc(F)cc2)c1-c1ccncc1`, the inhibition was 92%.
Still for that read-out and setting: the value for `Cc1ccc(C)c(S(=O)(=O)N[C@H](C)c2[nH]nc(-c3ccc(F)cc3)c2-c2ccncc2)c1` was 93%.
Compound `C[C@@H](NS(=O)(=O)Cc1ccccc1)c1[nH]nc(-c2ccc(F)cc2)c1-c1ccncc1` yielded an IC50 of 0.05 µM.
Same read-out and setting: the result for `O=S(=O)(NCc1[nH]nc(-c2ccc(F)cc2)c1-c1ccncc1)c1ccc(F)cc1` reads 2.78 µM.
The compound `O=C(c1ccccc1Cl)N1CCC(c2[nH]nc(-c3ccc(F)cc3)c2-c2ccncc2)CC1` yielded an inhibition of 85%.
On the same count and under the same terms, the value for `C[C@@H](NS(=O)(=O)c1ccc(Cl)s1)c1[nH]nc(-c2ccc(F)cc2)c1-c1ccncc1` was 95%; that for `CC(=O)OC(C)(C)C(=O)N[C@H](C)c1[nH]nc(-c2ccc(F)cc2)c1-c1ccncc1` was 17%; that for `COc1ccc(C(=O)NCc2[nH]nc(-c3ccc(F)cc3)c2-c2ccncc2)cc1OC` was 22%.
The same measure, in the same setting: the value for `C[C@H](NS(=O)(=O)c1ccc(Cl)cc1Cl)c1[nH]nc(-c2ccc(F)cc2)c1-c1ccncc1` was 88%; that for `CCNC(=O)N[C@@H](C)c1[nH]nc(-c2ccc(F)cc2)c1-c1ccncc1` was 50%.
The same measure, in the same setting: the result for `Cc1c(C)c(S(=O)(=O)N[C@@H](C)c2[nH]nc(-c3ccc(F)cc3)c2-c2ccncc2)c(C)c2c1OC(C)(C)CC2` reads 87%.
For the compound `CC(Oc1ccccc1)C(=O)NCc1[nH]nc(-c2ccc(F)cc2)c1-c1ccncc1` (stereo not drawn), the half-maximal inhibitory concentration (IC50) is 2.26 µM.
Compound `CCCCOc1ccc(S(=O)(=O)N[C@H](C)c2[nH]nc(-c3ccc(F)cc3)c2-c2ccncc2)cc1` displayed an inhibition of 67%.
The same measure, in the same setting: the result for `Cc1ccc(S(=O)(=O)N[C@@H](Cc2ccccc2)C(=O)N[C@@H](C)c2[nH]nc(-c3ccc(F)cc3)c2-c2ccncc2)cc1` reads 31%; that for `O=C(NCCCc1[nH]nc(-c2ccc(F)cc2)c1-c1ccncc1)NCCc1ccccn1`, 24%.

For the origin of these results see the Kinase Knowledgebase extract (Sharma et al. 2016).
